The text below walks through data of US10703756B2, “Pyrrolo[2,3-D]pyrimidinyl, pyrrolo[2,3-B]pyrazinyl, pyrrolo[2,3-B]pyridinyl acrylamides and epoxides thereof” (Pfizer Inc., priority 2015, dated 2020).

Experiment [1] deals with T1, JAK3 enzyme (Homo sapiens, UniProt P52333).
T1 sequence (P52333 1-1124): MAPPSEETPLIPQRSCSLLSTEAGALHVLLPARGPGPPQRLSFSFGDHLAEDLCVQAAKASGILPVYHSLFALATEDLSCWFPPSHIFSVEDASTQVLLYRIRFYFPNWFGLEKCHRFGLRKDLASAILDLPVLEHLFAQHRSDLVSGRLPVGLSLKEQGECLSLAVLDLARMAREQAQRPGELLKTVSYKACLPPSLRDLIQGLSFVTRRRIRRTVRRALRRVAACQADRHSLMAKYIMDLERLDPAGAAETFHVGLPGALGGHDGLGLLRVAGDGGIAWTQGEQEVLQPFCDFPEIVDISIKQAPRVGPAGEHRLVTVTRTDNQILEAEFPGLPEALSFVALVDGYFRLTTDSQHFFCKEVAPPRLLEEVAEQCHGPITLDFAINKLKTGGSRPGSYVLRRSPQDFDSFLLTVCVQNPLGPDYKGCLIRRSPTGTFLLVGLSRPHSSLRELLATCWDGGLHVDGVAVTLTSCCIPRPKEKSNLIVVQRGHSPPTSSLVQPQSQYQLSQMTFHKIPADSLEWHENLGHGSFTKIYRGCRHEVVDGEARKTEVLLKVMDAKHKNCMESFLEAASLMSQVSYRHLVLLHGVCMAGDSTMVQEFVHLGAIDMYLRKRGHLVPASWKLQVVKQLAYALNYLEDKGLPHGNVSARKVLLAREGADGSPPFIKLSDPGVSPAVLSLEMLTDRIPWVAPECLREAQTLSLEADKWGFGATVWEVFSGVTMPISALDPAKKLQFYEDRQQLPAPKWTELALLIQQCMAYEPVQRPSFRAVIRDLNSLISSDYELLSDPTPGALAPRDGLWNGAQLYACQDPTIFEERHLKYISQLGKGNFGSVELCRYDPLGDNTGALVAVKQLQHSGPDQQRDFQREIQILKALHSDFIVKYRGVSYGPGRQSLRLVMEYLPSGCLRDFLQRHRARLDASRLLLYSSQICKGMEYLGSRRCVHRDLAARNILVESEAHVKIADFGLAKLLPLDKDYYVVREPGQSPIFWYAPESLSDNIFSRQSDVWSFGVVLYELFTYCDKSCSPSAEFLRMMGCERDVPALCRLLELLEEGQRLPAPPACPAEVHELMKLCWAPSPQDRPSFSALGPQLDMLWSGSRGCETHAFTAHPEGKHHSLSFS
The experiment can be described thus: JAK Caliper Enzyme Assay at 4 μM ATP. In kind it is biochemical. The essentials: (§1)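 Substrate conversion was kept within 20%-30% by adjusting enzyme and incubation for every preparation; peptide phosphorylation was quantified via on-chip mobility shift.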

The target of experiment [2] is T1, JAK3 enzyme. The experiment can be described thus: JAK Caliper Enzyme Assay at 1 mM ATP. In kind it is biochemical. The procedure, abridged: as §1
In experiment [3] the test system is IL-15 induced P-STAT5 in human PBMC. The experiment can be described thus: PBMC IL-15 Induced P-STAT5. Particulars: human PBMC, IL-15 final 41 ng/mL; read-out: PBMC IL15_pSTAT5_IC50. In kind it is cell-based. The protocol:
PBMC IL-15 Induced P-STAT5
Test compounds were serially diluted in DMSO, with further dilution of the compounds in RPMI 1640 medium (Invitrogen #72400) supplemented with 10 mM HEPES, pH 7.4, 1 mM sodium pyruvate, and Penicillin/Streptomycin (by adding 5 μL compound/DMSO in 120 μL Dulbecco's Phosphate-Buffered Saline (D-PBS, 1×), [DMSO]=4%, and mixing the solution by repeated pipetting, 6×). IL-15 was diluted to the concentration at 820 ng/mL in RPMI 1640 medium.
Frozen human PBMC (200-250 million cells/vial) was thawed at 37° C. The cells were transferred to 10 mL warm medium in a 50-mL conical tube, and centrifuged at 1,200 RPM at room temperature for 5 min. The supernatant was aspirated. Cells were suspended in 3 mL warm human plasma and incubated at 37° C. in a tissue culture incubator for 1.5 to 2 h. After adding 47 ml D-PBS (37° C.) to PBMC/FBS suspension, centrifuging at 1,200 RPM at room temperature for 5 min, and aspirating the supernatant, the cells were resuspended in 20 mL warm RPMI medium. Ninety μL of cell suspension were pipetted per well in a 96-well, deep-well, V-bottom plate, and the plate was incubated at 37° C. for 30 min. Five μL of compound were transferred to each well (final 0.2% DMSO), vortex gently and incubate at 37° C. for 15 min; 5 μL 4% DMSO/PBS were added to the control wells. After adding 5 μL 820 ng/mL of human IL-15 (final 41 ng/mL) to each well (5 μL PBS to the control wells), vortexing gently and incubating at 37° C. for 15 min, followed by 0.3 mL 1% paraformaldehyde/PBS (37° C.) to each well, and incubating the plate at room temperature for 15 min, the plates were centrifuged at 1,200 RPM (Beckman GS-6R or Sorvall Legend) at room temperature for 5 min, and the supernatant was aspirated using a 8-channel or 12-channel manifold. After adding 0.8 mL staining buffer per well, the plates were centrifuged at 1,200 RPM (Beckman GS-6R or Sorvall Legend) at room temperature for 5 min, and again the supernatant was aspirated using a 8-channel or 12-channel manifold. The plate was vortexed, and 0.35 mL 90% methanol/10% H2O (−20° C.) was added per well, and the plate incubated on ice for 20 min. After again adding 0.8 mL staining buffer per well, the plates were centrifuged at 1,200 RPM (Beckman GS-6R or Sorvall Legend) at room temperature for 5 min, and again the supernatant was aspirated using a 8-channel or 12-channel manifold, and then 0.8 mL Staining buffer was added per well. After once again adding 0.8 mL staining buffer per well, the plates were centrifuged at 1,200 RPM (Beckman GS-6R or Sorvall Legend) at room temperature for 5 min, and again the supernatant was aspirated using a 8-channel or 12-channel manifold. Then the plate was vortexed, and 250 μL/well of Alexa Fluor® 647 conjugated anti-STAT5 antibody ([…]; […]) was added, and the plate was incubated at 4° C. overnight in the dark. Samples of 250 μL/well were transferred to a 96-well U-bottom plate, and the FACS analysis was performed gating on total lymphocytes. Samples were analyzed using a BD Calibur™ or BD FACSCanto™ flow cytometer equipped with the BD High Throughput Sampler.

Consider `C=CC(=O)N1CCC(C)(Oc2cnc3[nH]cc(C(=O)NCC)c3n2)CC1` [Example 61, 2-[(1-acryloyl-4-methylpiperidin-4-yl)oxy]-N-ethyl-5H-pyrrolo[2,3-b]pyrazine-7-carboxamide], for which the IC50 against JAK3 enzyme [1] was 3.39 nM; against JAK3 enzyme [2] it was 564 nM; in experiment [3], 2170 nM.
For `C=CC(=O)N1CCN(c2cnc3[nH]cc(C(=O)NCC4CC(F)(F)C4)c3n2)C[C@@H]1CC(C)C` [Example 274, 2-[(3S)-4-acryloyl-3-(2-methylpropyl)piperazin-1-yl]-N-[(3,3-difluorocyclobutyl)methyl]-5H-pyrrolo[2,3-b]pyrazine-7-carboxamide] the same measures were 0.984 nM, 157 nM and 507 nM.
The matching figures for `C=CC(=O)N1CCN(c2cnc3[nH]cc(C(=O)NC(CC)COC)c3n2)CC1(C)C` (racemic) [Example 141, Racemic-2-(4-acryloyl-3,3-dimethylpiperazin-1-yl)-N-(1-methoxybutan-2-yl)-5H-pyrrolo[2,3-b]pyrazine-7-carboxamide]: 0.794 nM, 103 nM and 347 nM.
With `C=CC(=O)N(C)C1CN(c2cnc3[nH]cc(C(=O)NCCOC)c3n2)C1` [Example 84, 2-{3-[acryloyl(methyl)amino]azetidin-1-yl}-N-(2-methoxyethyl)-5H-pyrrolo[2,3-b]pyrazine-7-carboxamide], the IC50 was found to be 1.67 nM against JAK3 enzyme [1], 329 nM against JAK3 enzyme [2] and 1220 nM in experiment [3].
The matching figures for `C=CC(=O)N1CCC(Nc2cnc3[nH]cc(C(=O)NC4CCC4)c3n2)CC1C` (racemic) [Example 320, Racemic-2-[(1-acryloyl-2-methylpiperidin-4-yl)amino]-N-cyclobutyl-5H-pyrrolo[2,3-b]pyrazine-7-carboxamide]: 2.16 nM, 182 nM and 1250 nM.
For `C=CC(=O)N1CC[C@H](Nc2cnc3[nH]cc(C(=O)NC4CC(F)(F)C4)c3n2)[C@H](OC)C1` [Example 277, 2-{[(3R,4S)-1-acryloyl-3-methoxypiperidin-4-yl]amino}-N-(3,3-difluorocyclobutyl)-5H-pyrrolo[2,3-b]pyrazine-7-carboxamide] the same measures were 0.59 nM, 155 nM and 2320 nM.
With `C=CC(=O)N1CCC(Oc2cnc3[nH]cc(C(=O)NCC4(O)CCC4)c3n2)CC1` [Example 203, 2-[(1-acryloylpiperidin-4-yl)oxy]-N-[(1-hydroxycyclobutyl)methyl]-5H-pyrrolo[2,3-b]pyrazine-7-carboxamide], the IC50 at JAK3 enzyme [1] turned out to be 2.82 nM; on JAK3 enzyme [2] it was 370 nM; in experiment [3], 4460 nM.
With `C=CC(=O)N1CCN(c2cnc3[nH]cc(C(=O)NC4CCC4)c3n2)CC1(C)C` [Example 289, 2-(4-acryloyl-3,3-dimethylpiperazin-1-yl)-N-cyclobutyl-5H-pyrrolo[2,3-b]pyrazine-7-carboxamide], the values for the IC50 (on JAK3 enzyme [1]; against JAK3 enzyme [2]; in experiment [3]) were 1.29 nM, 209 nM and 454 nM, respectively.
For `C=CC(=O)N1CCC(Nc2cnc3[nH]cc(C(=O)NCc4cc(C5CCC5)nn4C)c3n2)CC1` [Example 173, 2-[(1-acryloylpiperidin-4-yl)amino]-N-[(3-cyclobutyl-1-methyl-1H-pyrazol-5-yl)methyl]-5H-pyrrolo[2,3-b]pyrazine-7-carboxamide] the same measures were 0.681 nM, 43 nM and 1420 nM.
The matching figures for `C=CC(=O)N1CCC(Oc2cnc3[nH]cc(C(=O)NCC4(O)CCCC(F)(F)C4)c3n2)CC1` (racemic) [Example 223, Racemic-2-[(1-acryloylpiperidin-4-yl)oxy]-N-[(3,3-difluoro-1-hydroxycyclohexyl)methyl]-5H-pyrrolo[2,3-b]pyrazine-7-carboxamide]: 4.13 nM, 344 nM and 3330 nM.
Consider `C=CC(=O)N1CCN(c2cnc3[nH]cc(C(=O)NC4CC(F)(F)C4)c3n2)C[C@@H]1CC(C)C` [Example 273, 2-[(3S)-4-acryloyl-3-(2-methylpropyl)piperazin-1-yl]-N-(3,3-difluorocyclobutyl)-5H-pyrrolo[2,3-b]pyrazine-7-carboxamide], for which the IC50 was 1.59 nM at JAK3 enzyme [1], 204 nM on JAK3 enzyme [2] and 389 nM in experiment [3].
Consider `C=CC(=O)N1CC[C@H](Nc2cnc3[nH]cc(C(=O)NCC4CC(F)(F)C4)c3n2)[C@H](OC)C1` [Example 322, 2-{[(3R,4S)-1-acryloyl-3-methoxypiperidin-4-yl]amino}-N-[(3,3-difluorocyclobutyl)methyl]-5H-pyrrolo[2,3-b]pyrazine-7-carboxamide], for which the IC50 against JAK3 enzyme [1] is 0.269 nM; against JAK3 enzyme [2] it was 47 nM; in experiment [3] it was 428 nM.
The matching figures for `C=CC(=O)N1CCN(c2cnc3[nH]cc(C(=O)N[C@H](C)CC#N)c3n2)CC1(C)C` [Example 152, 2-(4-acryloyl-3,3-dimethylpiperazin-1-yl)-N-[(2R)-1-cyanopropan-2-yl]-5H-pyrrolo[2,3-b]pyrazine-7-carboxamide]: 1.97 nM, 256 nM and 510 nM.
The matching figures for `C=CC(=O)N1CCC(Oc2cnc3[nH]cc(C(=O)N[C@H]4CC[C@H](F)C4)c3n2)CC1` [Example 210, 2-[(1-acryloylpiperidin-4-yl)oxy]-N-[(1S,3S)-3-fluorocyclopentyl]-5H-pyrrolo[2,3-b]pyrazine-7-carboxamide]: 0.435 nM, 54 nM and 325 nM.
